Test system: 200 kinds of cytokines
Assay: Fold change of 200 cytokines in homogenized wound tissue
Assay type: in vivo, Balb/c mice
Details: mean; wound tissue
Source text: To quantify the physiological condition of the wound tissues, we measured the concentrations of 200 kinds of cytokines (Table. 1) from the supernatant of homogenized tissue solution. Cytokines are small secreted proteins released by cells and have specific effect on the interactions and communications between cells (25).
To initiate the formation of a skin wound, five groups (n=5) of eight-week old female Balb/c mice (obtained from Harlan Laboratories, Indianapolis, Ind., USA) were disinfected with ethanol (70%) and shaved on the middle of the back (approximately a one-inch by one-inch square region around the injection site) one day prior to infection as described from a reported procedure (3). To prepare the bacterial inoculum, an aliquot of overnight culture of MRSA USA300 was transferred to fresh Tryptic soy broth and shaken at 37° C. until an OD600 value of ˜1.0 was achieved. The cells were centrifuged, washed once with PBS, re-centrifuged, and then re-suspended in PBS. Mice subsequently received an intradermal injection (40 μL) containing 2.40×10^9 CFU/mL MRSA USA300.
One group of mice was left untreated (negative control). Each group of mice receiving a particular treatment regimen was housed separately in a ventilated cage with appropriate bedding, food, and water. […] Mice were treated twice daily (once every 12 hours) for three days, before they were humanely euthanized via CO2 asphyxiation 12 hours after the last dose was administered. The region around the skin wound was lightly swabbed with ethanol (70%) and excised. The tissue was subsequently homogenized in PBS. The homogenized tissue was then serially diluted in PBS before plating onto mannitol salt agar plates. Plates were incubated for at least 19 hours at 37° C. before viable MRSA CFU/mL were counted for each group. Outlier was removed based upon the Dixon Q Test.

Compound: OO [H2O2, hydrogen peroxide]
- fold change of IL-1ra: 0.1670
- fold change of IL-2: −0.1860
- fold change of IL-2 Ra: 0.2015
- fold change of IL-3: −0.1781
- fold change of IL-3 Rb: −0.0953
- fold change of IL-4: −0.2011
- fold change of IL-5: −0.3106
- fold change of IL-6: −0.2775
- fold change of IL-7: −0.0083
- fold change of IL-7 Ra: −0.4620
- fold change of IL-9: 0.0482
- fold change of IL-10: −0.1759
- fold change of IL-12p40: 0.0200
- fold change of IL-12p70: −0.1362
- fold change of IL-13: −0.4855
- fold change of IL-15: −0.1351
- fold change of IL-17: 1.4006
- fold change of IL-17B: −0.2485
- fold change of IL-17B R: 0.0438
- fold change of IL-17E: −0.3214
- fold change of IL-17F: 0.6993
- fold change of IL-20: −0.1274
- fold change of IL-21: −0.5851
- fold change of IL-22: −0.5330
- fold change of IL-23: 0.1392
- fold change of IL-28: 0.2046
- fold change of IL-33: −0.6370
- fold change of JAM-A: −0.2998
- fold change of KC: −0.0602
- fold change of Kremen-1: −0.4532
- fold change of L-Selectin: −0.1755
- fold change of LIX: −0.2304
- fold change of LOX-1: 0.0229
- fold change of Leptin: −0.1401
- fold change of Leptin R: −0.1563
- fold change of Limitin: 0.5441
- fold change of Lipocalin-2: −0.0669
- fold change of Lungkine: −0.0954
- fold change of Lymphotactin: 0.0191
- fold change of MCP-1: 0.9431
- fold change of MCP-5: −0.8808
- fold change of MCSF: −0.0002
- fold change of MDC: 0.5488
- fold change of MFG-E8: −0.1414
- fold change of MIG: −0.1127
- fold change of MIP-1a: −0.3107
- fold change of MIP-1b: −0.4967
- fold change of MIP-1g: −0.0241
- fold change of MIP-2: −0.0277
- fold change of MIP-3a: 0.3267
- fold change of MIP-3b: −0.1993
- fold change of MMP-2: −0.5768
- fold change of MMP-3: −0.0983
- fold change of MMP-10: −0.1476
- fold change of MadCAM-1: −0.3032
- fold change of Marapsin: −0.0476
- fold change of Neprilysin: −0.2555
- fold change of OPG: −0.2142
- fold change of OPN: −0.2307
- fold change of P-selectin: −0.4006
- fold change of PDGF-AA: −0.4666
- fold change of PF4: −0.7429
- fold change of Pentraxin 3: −0.7179
- fold change of Persephin: −0.3386
- fold change of Pro-MMP-9: 0.0213
- fold change of Prolactin: 0.2852
- fold change of RAGE: −0.0350
- fold change of RANTES: −0.4249
- fold change of Resistin: −0.3623
- fold change of SCF: 0.1915
- fold change of SDF-1a: −0.0807
- fold change of SLAM: −0.0883
- fold change of Shh-N: −0.1527
- fold change of TACI: −0.2636
- fold change of TARC: −0.4322
- fold change of TCA-3: −0.2756
- fold change of TCK-1: −0.4843
- fold change of TECK: 0.1734
- fold change of TGFb1: −0.1570
- fold change of TNF RI: −0.2939
- fold change of TNF RII: −0.1233
- fold change of TNFα: 0.1039
- fold change of TPO: −0.0215
- fold change of TRANCE: 0.0878
- fold change of TREM-1: 0.0703
- fold change of TROY: −0.0721
- fold change of TSLP: −0.1726
- fold change of TWEAK: −0.1667
- fold change of TWEAK R: −0.4445
- fold change of TremL1: −0.2695
- fold change of VCAM-1: −0.1357
- fold change of VEGF: −0.0295
- fold change of VEGF R1: −0.4184
- fold change of VEGF R3: −0.0705
- fold change of VEGF-B: −0.0693
- fold change of VEGF-D: −0.0146
- fold change of bFGF: −0.2542
- fold change of gp130: 0.1048
- fold change of sFRP-3: −0.1892

Reference: US20200306295A1, “METHOD AND DEVICE FOR ANNIHILATION OF Staphylococcus aureus” (priority 2017, published 2020)
